From US7326682B2 (priority 1998, dated 2008)
Counter-ions that a name gives are not always drawn.

Tested on: rat prostatic vas deferens

In the case of `COC(=O)[C@@H]1[C@H]2C[C@H]3c4[nH]c5ccccc5c4CCN3C[C@@H]2CC[C@@H]1O` [yohimbine, yohimbine hydrochloride], the “effect on the evoked responses” value is reported as “no effect”.
